Patent publication US20070298994A1, “Use of 3-Mercapto-3-Methyl-Hexan-1-Ol for Use as Malodour Standard” (SYMRISE GMBH & CO. KG, priority 2004, published 2007)
Read-outs that look alike come from different tables or passages of the source.

How the values were obtained:
[1] = Raw material test against sweat odour (masking of malodour standard, assessor panel)
[2] = Application test in the formulations (smelling strips, assessor panel); design: Malodour reduction value: scale not given here; settings: smelling strip, 1 μl 3-mercapto-3-methyl-hexan-1-ol solution (0.001% in DPG), at least 12 experts
Procedure: Mixtures A-C and the fragrances of Table 4 were incorporated in the formulations of Examples 3-12 as perfume oil. […] The coding smelling strips were evaluated sensorily by a group of assessors of at least 12 experts.

[3] = Table 1, 1 μl fragrance + 5 μl 3-mercapto-3-methyl-hexan-1-ol (0.1% in DPG) in 7 l air, 15 h at approx. 20° C., scale 1 to 9, malodour standard mixture = 6, mean of at least 8 assessors
[4] = Table 3 (adequate malodour-reducing action but significant increase in intensity), 1 μl fragrance + 5 μl 3-mercapto-3-methyl-hexan-1-ol (0.1% in DPG) in 7 l air, 15 h, scale 1 to 9, standard = 6
[5] = Table 2 (raw materials without adequate malodour-reducing action), 1 μl fragrance + 5 μl 3-mercapto-3-methyl-hexan-1-ol (0.1% in DPG) in 7 l air, 15 h, scale 1 to 9, standard = 6
[6] = Table 4, tests with the mixtures (Example 2), according to the raw material test method
[7] = in EXAMPLE 3: ROLL-ON DEODORANT GEL
[8] = in EXAMPLE 6: GEL AIR FRESHENER
[9] = in EXAMPLE 7: AEROSOL DEODORANT
[10] = in EXAMPLE 9: HAIR SETTING LOTION
[11] = prior-art fragrances examined by the applicant

## CC(=O)OC(C)(C)C1CC=C(C)CC1 (stereo not drawn) [ACETIC ACID-ALPHA-TERPINYL ESTER]
[1]; [3]
  Increase In intensity: −0.3
  Odour reduction value: 4.0

## CC(=O)O[C@H]1CC[C@H](C(C)(C)C)CC1 [ACETIC-TRANS-4-TERT.-BUTYL CYCLOHEXYL ESTER]
[1]; [3]
  Increase In intensity: 0.2
  Odour reduction value: 5.1

## C=CCOC(=O)CCCCC [ALLYL CAPRONATE]
[1]; [3]
  Increase In intensity: 1.0
  Odour reduction value: 3.0

## C=CCOC(=O)CCCCCC [ALLYL HEPTYLATE]
[1]; [3]
  Increase In intensity: −0.5
  Odour reduction value: 3.0

## C=CC(C)(C#N)Cc1ccccc1 (stereo not drawn) [ALPHA-ETHENYL-ALPHA-METHYL-BENZENE PROPANE NITRILE]
[1]; [3]
  Increase In intensity: 1.0
  Odour reduction value: 4.2

## Cc1cccc(CC(C)(C)C(C)O)c1 (stereo not drawn) [ALPHA.BETA.BETA.3-TETRAMETHYL-BENZENE PROPANOL]
[1]; [3]
  Increase In intensity: 0.2
  Odour reduction value: 4.6

## CCCCCOC(=O)c1ccccc1O [AMYL SALICYLATE, reference compound]
[1]; [4]
  Increase in intensity: 2.4
  Malodour-reduction value: 3.6

## CC(=O)OCc1ccccc1 [BENZYL ACETATE, reference compound]
[1]; [5]
  Increase in intensity: 0.4
  Malodour reduction value: 2.5

## OCc1ccccc1 [BENZYL ALCOHOL, reference compound]
[1]; [5]
  Increase in intensity: 2.0
  Malodour reduction value: −2.0

## CCOC(=O)OC1C(C)CCC(C)C1C (centres unmarked) [CARBONIC ACID-ETHYL-2.3.6-TRIMETHYL CYCLOHEXYL ESTER]
[1]; [3]
  Increase In intensity: 1.0
  Odour reduction value: 4.6

## CC(C)=CCCC(C)CCO (centres unmarked) [CITRONELLOL, reference compound]
[1]; [5]
  Increase in intensity: −0.2
  Malodour reduction value: 2.2

## C/C=C/C(=O)OC(C)C1CCCCC1 (centres unmarked) [CROTONIC ACID-1-CYCLOHEXYL ETHYL ESTER]
[1]
  Increase In intensity: 0.8
  Odour reduction value: 3.7

## C/C=C/C(=O)OC(C)CC(C)C (centres unmarked) [CROTONIC ACID-4-METHYL-2-[…]]
[1]; [3]
  Increase In intensity: −0.5
  Odour reduction value: 3.5

## COC1(OC)CCCCCCCCCCC1 [CYCLODODECANONE DIMETHYL KETAL]
[1]; [3]
  Increase In intensity: 1.5
  Odour reduction value: 4.0

## COC1CCCCCCCCCCC1 [CYCLODODECYL METHYL ETHER]
[1]; [3]
  Increase In intensity: 0.7
  Odour reduction value: 3.1

## CCCCCCCCCC=O [DECANAL]
[1]; [3]
  Increase In intensity: 0.2
  Odour reduction value: 3.0

## CCOC(=O)c1ccccc1C(=O)OCC [DEP, diethyl phthalate, reference compound]
[1]; [6]
  Increase in intensity: −0.1
  Malodour reduction value: 0.0
[1]; solvents
  effect on the intensity of the bad odour: no effect
  effect on the total intensity: no effect

## CCCCCCCCCCCC=O [DODECANAL, reference compound]
[1]; [5]
  Increase in intensity: 2.0
  Malodour reduction value: 2.0

## CCOC(C)=O [ETHYL ACETATE]
[1]; [5]
  Increase in intensity: −0.9
  Malodour reduction value: 1.1
[1]; [6]
  Increase in intensity: −1.1
  Malodour reduction value: 1.1
[2]; [7]
  Increase in intensity: −0.1
  Malodour reduction value: 0.5
[2]; in EXAMPLE 4: W/O CREAM
  Increase in intensity: 0.0
  Malodour reduction value: 1.0
[2]; in EXAMPLE 5: O/W LOTION
  Increase in intensity: 0.5
  Malodour reduction value: 0.5
[2]; [8]
  Increase in intensity: 0.5
  Malodour reduction value: 0.8
[2]; [9]
  Increase in intensity: −0.5
  Malodour reduction value: 1.1
[2]; in EXAMPLE 8: FOOT CREAM
  Increase in intensity: 0.5
  Malodour reduction value: 0.8
[2]; [10]
  Increase in intensity: −0.5
  Malodour reduction value: 1.2
[2]; in EXAMPLE 10: CARE MASK
  Increase in intensity: 0.8
  Malodour reduction value: 1.2
[2]; in EXAMPLE 11: SKIN OIL
  Increase in intensity: −0.5
  Malodour reduction value: 0.3
[2]; in EXAMPLE 12: OINTMENT
  Increase in intensity: −0.6
  Malodour reduction value: 0.0

## C=CCc1ccc(O)c(OC)c1 [EUGENOL]
[1]; [3]
  Increase In intensity: 0.7
  Odour reduction value: 6.0

## CC(=O)/C(C)=C/C1C(C)=CCCC1(C)C (centres unmarked) [GAMMA-METHYLICONE, reference compound]
[1]; [4]
  Increase in intensity: 2.1
  Malodour-reduction value: 4.0

## CC(=O)OC/C=C(\C)CCC=C(C)C [GERANYL ACETATE, reference compound]
[1]; [4]
  Increase in intensity: 2.2
  Malodour-reduction value: 3.0

## CC(C)=CCCC(C)=CC#N [GERANYL NITRILE, 3,7-dimethyl-2,6-octadiene-1-nitrile, reference compound]
[1]; [4]
  Increase in intensity: 3.0
  Malodour-reduction value: 5.0
[1]; [11]
  intrinsic odour / perfumistic impression (in words): strong intrinsic odour
  reduction in the bad odour based on 3-mercapto-3-methyl-hexan-1-ol (in words): does show a reduction in the bad odour

## CC(C)COC(=O)C=Cc1ccccc1 [ISOBUTYL CINNAMATE]
[1]; [3]
  Increase In intensity: 0.8
  Odour reduction value: 3.1

## C=CC(C)(O)CCC=C(C)C (centres unmarked) [LINALOOL]
[1]; [3]
  Increase In intensity: 1.0
  Odour reduction value: 5.0

## CC(=O)OC1CC(C)CCC1C(C)C (centres unmarked) [MENTHYL ACETATE, reference compound]
[1]; [4]
  Increase in intensity: 2.9
  Malodour-reduction value: 4.4

## CCCCCCCCC=O [NONANAL, reference compound]
[1]; [4]
  Increase in intensity: 2.1
  Malodour-reduction value: 3.0

## CCCCCCCC=O [OCTANAL, reference compound]
[1]; [5]
  Increase in intensity: 0.9
  Malodour reduction value: 2.4

## OCCCc1ccccc1 [PHENYL PROPYL ALCOHOL, reference compound]
[1]; [5]
  Increase in intensity: 1.0
  Malodour reduction value: 0.0

## CC(C)CCOC(=O)c1ccccc1O [SALICYLIC ACID 3-METHYLBUTYL ESTER]
[1]; [3]
  Increase In intensity: 1.0
  Odour reduction value: 3.3

## CCCCCCOC(=O)c1ccccc1O [SALICYLIC ACID HEXYL ESTER]
[1]; [3]
  Increase In intensity: 1.7
  Odour reduction value: 3.7

## CC(C)=CCOC(=O)c1ccccc1O [SALICYLIC ACID PRENYL ESTER]
[1]; [3]
  Increase In intensity: 0.2
  Odour reduction value: 3.6

## CCCCCC1COCCC1OC(C)=O (centres unmarked) [TETRAHYDRO-3-PENTYL-PYRAN-4-OL ACETATE]
[1]; [3]
  Increase In intensity: 1.5
  Odour reduction value: 4.5
[1]; [5]
  Increase in intensity: 1.0
  Malodour reduction value: 2.0

## CCC(C)(O)CCCC(C)C (centres unmarked) [TETRAHYDROLINALOOL, reference compound]
[1]; [4]
  Increase in intensity: 2.3
  Malodour-reduction value: 3.0

## CCC(C)CCCC(C)(C)O (centres unmarked) [TETRAHYDROMYRCENOL, reference compound]
[1]; [4]
  Increase in intensity: 2.2
  Malodour-reduction value: 4.0

## C/C=C(\C)C(=O)OC/C=C(\C)CCC=C(C)C [TIGLIC ACID GERANYL ESTER]
[1]; [3]
  Increase In intensity: 0.8
  Odour reduction value: 4.5

## CC(C)[C@H]1CC[C@H](O)CC1 [TRANS-4-ISOPROPYL CYCLOHEXANOL]
[1]; [3]
  Increase In intensity: 1.0
  Odour reduction value: 4.1

## CCCCCCCCCCCC#N [UNDECYL CYANIDE]
[1]; [3]
  Increase In intensity: 1.6
  Odour reduction value: 3.3

## COc1cc(C=O)ccc1O [VANILLIN, reference compound]
[1]; [5]
  Increase in intensity: 1.0
  Malodour reduction value: 0.0

## CC1CC(C)(c2ccccc2)OC(C)O1 (centres unmarked) [reference compound]
[1]
  Increase in intensity: −0.7
  Malodour reduction value: 1.1

## CCCCCC(C=O)=Cc1ccccc1 [reference compound]
[1]; [5]
  Increase in intensity: 1.0
  Malodour reduction value: 0.0
